For orientation: IC50 means the concentration that gives 50% inhibition.

For this test, the target named is T1, Recombinant human KIF18A (1-467 His-tagged) protein (Homo sapiens, UniProt Q8NI77).
T1 construct: Recombinant human KIF18A (1-467 His-tagged) protein; His; made in house
T1 sequence (Q8NI77 1-467): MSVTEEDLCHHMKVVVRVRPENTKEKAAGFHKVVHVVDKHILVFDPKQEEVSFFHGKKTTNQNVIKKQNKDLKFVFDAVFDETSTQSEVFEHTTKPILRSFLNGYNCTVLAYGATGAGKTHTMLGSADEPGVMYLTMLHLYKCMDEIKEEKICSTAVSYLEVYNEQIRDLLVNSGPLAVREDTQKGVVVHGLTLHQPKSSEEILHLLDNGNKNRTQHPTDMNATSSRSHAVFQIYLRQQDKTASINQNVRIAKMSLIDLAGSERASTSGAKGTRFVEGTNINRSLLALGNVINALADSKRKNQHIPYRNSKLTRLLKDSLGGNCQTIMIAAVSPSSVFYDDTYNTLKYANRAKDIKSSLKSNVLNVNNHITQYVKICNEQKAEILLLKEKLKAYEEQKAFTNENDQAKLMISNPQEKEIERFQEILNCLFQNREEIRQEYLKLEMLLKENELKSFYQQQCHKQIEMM
T1 sequence (P02550 whole entry partner): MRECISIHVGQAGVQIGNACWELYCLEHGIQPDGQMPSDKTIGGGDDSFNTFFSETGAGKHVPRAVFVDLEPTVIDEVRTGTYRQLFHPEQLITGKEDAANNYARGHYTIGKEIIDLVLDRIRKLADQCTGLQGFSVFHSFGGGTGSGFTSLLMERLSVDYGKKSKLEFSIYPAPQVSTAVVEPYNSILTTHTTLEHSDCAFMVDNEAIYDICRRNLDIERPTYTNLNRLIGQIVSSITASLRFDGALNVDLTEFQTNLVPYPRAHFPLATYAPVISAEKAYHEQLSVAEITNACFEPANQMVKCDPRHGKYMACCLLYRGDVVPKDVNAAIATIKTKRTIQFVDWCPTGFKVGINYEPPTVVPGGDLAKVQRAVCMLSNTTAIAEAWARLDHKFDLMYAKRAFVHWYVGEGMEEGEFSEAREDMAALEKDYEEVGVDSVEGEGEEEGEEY
T1 sequence (P02554 whole entry partner): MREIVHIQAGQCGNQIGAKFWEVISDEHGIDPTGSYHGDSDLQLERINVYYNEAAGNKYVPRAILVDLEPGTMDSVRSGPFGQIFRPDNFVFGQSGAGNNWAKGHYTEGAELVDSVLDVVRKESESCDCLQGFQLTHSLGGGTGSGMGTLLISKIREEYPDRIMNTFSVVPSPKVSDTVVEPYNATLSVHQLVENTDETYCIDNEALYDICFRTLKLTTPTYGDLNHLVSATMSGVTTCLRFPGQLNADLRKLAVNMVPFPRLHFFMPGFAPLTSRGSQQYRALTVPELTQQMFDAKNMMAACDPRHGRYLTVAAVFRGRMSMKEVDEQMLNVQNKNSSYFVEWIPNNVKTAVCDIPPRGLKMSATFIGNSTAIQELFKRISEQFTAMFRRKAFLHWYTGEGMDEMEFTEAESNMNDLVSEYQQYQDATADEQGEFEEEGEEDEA
The test is described as follows: KIF18A Enzyme Assay: microtubule-stimulated ATPase activity assay (ADP-Glo). In kind it is biochemical. The note with it: KIF18A protein 30 nM, 30 μg/mL pig microtubules, ATP at Km 75 μM, ADP-Glo luminescence, RT. The text has this:
KIF18A Enzyme Assay: Microtubule-stimulated ATPase activity assay is used to measure KIF18A enzyme activity after treatment with compound. Compounds were 2-fold serially diluted in DMSO (Sigma Inc) over 22-point concentration range. Recombinant human KIF18A (1-467 His-tagged) protein was expressed using a baculovirus system and purified by affinity chromatography by Amgen Inc. Concentrations of KIF18A protein, microtubules (MT), and ATP in the reaction were optimized for standardized homogenous enzyme assay using ADP-Glorm Kinase/ATPase Assay Kit (Promega Inc). The assay measures ADP formed from the ATPase reaction. […] Concentration-response curve-fitting and IC50 determination was performed using Genedata Screener Software (Standard 15.0.1, Genedata Inc) with a four-parameter logistic regression fit model.
Table A provides data for compounds exemplified in the present application and priority document thereof, as representative compounds of the present invention, as follows: chemical name (as named by either ACD software or ChemDraw (Professional 15.0)) and biological data (IC50 in μM). Ex. […] refers to Example No.
On to `CC(C)c1cccc(NC(=O)c2ccc(S(C)(=O)=O)cc2N2CCC3(CC2)CC3)c1` [Example 100-2, N-(3-isopropylphenyl)-4-(methylsulfonyl)-2-(6-azaspiro[2.5]octan-6-yl)benzamide], for which the half-maximal inhibitory concentration (IC50) was determined as 94 nM.

Turning to `CC(C)(C)NS(=O)(=O)c1cccc(NC(=O)c2ccc(S(C)(=O)=O)cc2N2CCC3(CC2)CC3)c1` [Example 100-1, N-(3-(N-(tert-butyl)sulfamoyl)phenyl)-4-(methylsulfonyl)-2-(6-azaspiro[2.5]octan-6-yl)benzamide], the 50% inhibitory concentration (IC50) is 61 nM.

As for `CN(C)S(=O)(=O)c1ccc(C(=O)Nc2cccc(S(=O)(=O)NC(C)(C)C)c2)c(N2CCC3(CC2)CC3)c1` [Example 107-3, N-(3-(N-(tert-butyl)sulfamoyl)phenyl)-4-(N,N-dimethylsulfamoyl)-2-(6-azaspiro[2.5]octan-6-yl)benzamide], the IC50 amounted to 70 nM.

On to `CC(C)(O)COc1cccc(NC(=O)c2ccc(NS(=O)(=O)CCO)cc2N2CCC3(CC2)CC3)c1` [Example 106, N-(3-(2-Hydroxy-2-methylpropoxy)phenyl)-4-((2-hydroxyethyl)sulfonamido)-2-(6-azaspiro[2.5]octan-6-yl)benzamide], for which the half-maximal inhibitory concentration (IC50) was found to be 78 nM.

As for `CC(C)(C)c1cccc(NC(=O)c2ccc(S(C)(=O)=O)cc2N2CCC3(CC2)CC3)c1` [Example 100-4, N-(3-(tert-butyl)phenyl)-4-(methylsulfonyl)-2-(6-azaspiro[2.5]octan-6-yl)benzamide], the IC50 was 362 nM.

Take `CS(=O)(=O)c1ccc(C(=O)Nc2cccc3ccsc23)c(N2CCC3(CC2)CC3)c1` [Example 100-9, N-(benzo[b]thiophen-7-yl)-4-(methylsulfonyl)-2-(6-azaspiro[2.5]octan-6-yl)benzamide]: the half-maximal inhibitory concentration (IC50) was determined as 630 nM.

For the compound `CC(C)(C)NS(=O)(=O)c1cccc(NC(=O)c2ccc([C@](C)(O)CO)cc2N2CCC3(CC2)CC3)c1` (single isomer, unassigned) [Example 108-2], the half-maximal inhibitory concentration (IC50) stood at 141 nM.

Turning to `CC(C)(C)NS(=O)(=O)c1cccc(NC(=O)c2ccc(C3(C)COC3)cc2N2CCC3(CC2)CC3)c1` [Example 100-14, N-(3-(N-(tert-butyl)sulfamoyl)phenyl)-4-(3-methyloxetan-3-yl)-2-(6-azaspiro[2.5]octan-6-yl)benzamide], the half-inhibitory concentration (IC50) turned out to be 130 nM.

Consider `CS(=O)(=O)c1ccc(C(=O)Nc2cccc3ccoc23)c(N2CCC3(CC2)CC3)c1` [Example 100-8, N-(benzofuran-7-yl)-4-(methylsulfonyl)-2-(6-azaspiro[2.5]octan-6-yl)benzamide], for which the IC50 worked out at 200 nM.

Take `CC(C)(C)NS(=O)(=O)c1cccc(NC(=O)c2ccc(S(=O)(=O)N3CCC3)cc2N2CCC3(CC2)CC3)c1` [Example 107, 4-(Azetidin-1-ylsulfonyl)-N-(3-(N-(tert-butyl)sulfamoyl)phenyl)-2-(6-azaspiro[2.5]octan-6-yl)benzamide]: the IC50 came to 44 nM.

Turning to `CC(C)(C)[S@](=N)(=O)c1cccc(NC(=O)c2ccc(NS(=O)(=O)CCO)cc2N2CCC3(CC2)CC3)c1` [Example 114-2, (S)-4-((2-hydroxyethyl)sulfonamido)-N-(3-(2-methylpropan-2-ylsulfonimidoyl)phenyl)-2-(6-azaspiro[2.5]octan-6-yl)benzamide], the IC50 was 323 nM.

For `CC(C)(C)[S@@](=N)(=O)c1cccc(NC(=O)c2ccc(NS(=O)(=O)CCO)cc2N2CCC3(CC2)CC3)c1` [Example 114-1, (R)-4-((2-hydroxyethyl)sulfonamido)-N-(3-(2-methylpropan-2-ylsulfonimidoyl)phenyl)-2-(6-azaspiro[2.5]octan-6-yl)benzamide], the IC50 was 194 nM.

For `CCS(=O)(=O)Nc1ccc(C(=O)Nc2cccc(S(=O)(=O)NC(C)(C)C)c2)c(N2CCC3(CC2)CC3)c1` [Example 102-2, N-(3-(N-(tert-butyl)sulfamoyl)phenyl)-4-(ethylsulfonamido)-2-(6-azaspiro[2.5]octan-6-yl)benzamide], the IC50 came to 34 nM.

For `Cc1ccnc2c(NC(=O)c3ccc(S(C)(=O)=O)cc3N3CCC4(CC3)CC4)cccc12` [Example 100-6, N-(4-methylquinolin-8-yl)-4-(methylsulfonyl)-2-(6-azaspiro[2.5]octan-6-yl)benzamide], the IC50 was 61 nM.

In the case of `C[S@@](=N)(=O)c1cccc(NC(=O)c2ccc(NS(=O)(=O)CCO)cc2N2CCC3(CC2)CC3)c1` [Example 113-1, (R)-4-((2-hydroxyethyl)sulfonamido)-N-(3-(S-methylsulfonimidoyl)phenyl)-2-(6-azaspiro[2.5]octan-6-yl)benzamide], the concentration for half-maximal inhibition (IC50) came out at 429 nM.

As for `CC(C)(C)NS(=O)(=O)c1cccc(NC(=O)c2ccc(S(=O)(=O)NC3(C)CC3)cc2N2CCC3(CC2)CC3)c1` [Example 107-7, N-(3-(N-(tert-butyl)sulfamoyl)phenyl)-4-(N-(1-methylcyclopropyl)sulfamoyl)-2-(6-azaspiro[2.5]octan-6-yl)benzamide], the IC50 was 52 nM.

`N=[S@@](=O)(c1cccc(NC(=O)c2ccc(NS(=O)(=O)CCO)cc2N2CCC3(CC2)CC3)c1)N1CCC1` (single isomer, unassigned) [Example 112-2]: the IC50 turned out to be 160 nM.

As to `C[C@@H]1CN(c2cccc(NC(=O)c3ccc(NS(=O)(=O)CCO)cc3N3CCC4(CC3)CC4)c2F)CCO1` [Example 103-2, (R)-N-(2-fluoro-3-(2-methylmorpholino)phenyl)-4-((2-hydroxyethyl)sulfonamido)-2-(6-azaspiro[2.5]octan-6-yl)benzamide], the half-maximal inhibitory concentration (IC50) was found to be 101 nM.

Turning to `CC(C)(C)NS(=O)(=O)c1cccc(NC(=O)c2ccc(N3CCCS3(=O)=O)cc2N2CCC3(CC2)CC3)c1` [Example 102-6, N-(3-(N-(tert-butyl)sulfamoyl)phenyl)-4-(1,1-dioxidoisothiazolidin-2-yl)-2-(6-azaspiro[2.5]octan-6-yl)benzamide], the half-maximal inhibitory concentration (IC50) amounted to 45 nM.

Consider `CC(C)(CO)Nc1cccc(NC(=O)c2ccc(S(=O)(=O)NC3(C)COC3)cc2N2CCC3(CC2)CC3)c1F` [Example 101-1, N-(2-fluoro-3-((1-hydroxy-2-methylpropan-2-yl)amino)phenyl)-4-(N-(3-methyloxetan-3-yl)sulfamoyl)-2-(6-azaspiro[2.5]octan-6-yl)benzamide], for which the IC50 came out at 66 nM.

Turning to `O=C(NCCO)c1ccc(C(=O)Nc2cccc(S(=O)(=O)C3CCCC3)c2)c(N2CCC3(CC2)CC3)c1` [Example 111-4, N^1-(3-(cyclopentylsulfonyl)phenyl)-N^4-(2-hydroxyethyl)-2-(6-azaspiro[2.5]octan-6-yl)terephthalamide], the IC50 was found to be 139 nM.

In the case of `CC(C)(C)NS(=O)(=O)c1cccc(NC(=O)c2ccc(NS(=O)(=O)C(C)(C)C)cc2N2CCC3(CC2)CC3)c1` [Example 102-5, N-(3-(N-(tert-butyl)sulfamoyl)phenyl)-4-((1,1-dimethylethyl)sulfonamido)-2-(6-azaspiro[2.5]octan-6-yl)benzamide], the half-inhibitory concentration (IC50) was found to be 63 nM.

As to `CC(C)(C)NS(=O)(=O)c1cccc(NC(=O)c2ccc(S(=O)(=O)NC(C)(C)C)cc2N2CCC3(CC2)CC3)c1` [Example 100-13, 4-(N-(tert-butyl)sulfamoyl)-N-(3-(N-(tert-butyl)sulfamoyl)phenyl)-2-(6-azaspiro[2.5]octan-6-yl)benzamide], the IC50 worked out at 76 nM.

With `CC(C)(C)NS(=O)(=O)c1cccc(NC(=O)c2ccc(NS(=O)(=O)C3CC3)cc2N2CCC3(CC2)CC3)c1` [Example 102-4, N-(3-(N-(tert-butyl)sulfamoyl)phenyl)-4-(cyclopropanesulfonamido)-2-(6-azaspiro[2.5]octan-6-yl)benzamide], the IC50 turned out to be 30 nM.

For the compound `O=C(Nc1cccc(N2CCC(F)(F)CC2)c1F)c1ccc(NS(=O)(=O)CCO)cc1N1CCC2(CC1)CC2` [Example 104-2, N-(3-(4,4-difluoropiperidin-1-yl)-2-fluorophenyl)-4-((2-hydroxyethyl)sulfonamido)-2-(6-azaspiro[2.5]octan-6-yl)benzamide], the IC50 worked out at 29 nM.

As to `CC(C)(C)NS(=O)(=O)c1cccc(NC(=O)c2ccc(S(=O)(=O)NC3COC3)cc2N2CCC3(CC2)CC3)c1` [Example 107-5, N-(3-(N-(tert-butyl)sulfamoyl)phenyl)-4-(N-(oxetan-3-yl)sulfamoyl)-2-(6-azaspiro[2.5]octan-6-yl)benzamide], the IC50 is 60 nM.

On to `CNS(=O)(=O)c1ccc(C(=O)Nc2cccc(S(=O)(=O)NC(C)(C)C)c2)c(N2CCC3(CC2)CC3)c1` [Example 107-4, N-(3-(N-(tert-butyl)sulfamoyl)phenyl)-4-(N-methylsulfamoyl)-2-(6-azaspiro[2.5]octan-6-yl)benzamide], for which the IC50 turned out to be 29 nM.

Regarding `C[S@](=N)(=O)c1cccc(NC(=O)c2ccc(NS(=O)(=O)CCO)cc2N2CCC3(CC2)CC3)c1` [Example 113-2, (S)-4-((2-hydroxyethyl)sulfonamido)-N-(3-(S-methylsulfonimidoyl)phenyl)-2-(6-azaspiro[2.5]octan-6-yl)benzamide], the IC50 came to 488 nM.

`Cc1cc(NC(=O)c2ccc(NS(=O)(=O)CCO)cc2N2CCC3(CC2)CC3)cc(N2CCC(F)(F)CC2)c1` [Example 104, N-(3-(4,4-difluoropiperidin-1-yl)-5-methylphenyl)-4-((2-hydroxyethyl)sulfonamido)-2-(6-azaspiro[2.5]octan-6-yl)benzamide]: the IC50 was determined as 34 nM.

The values above are taken from patent US20220289724A1, “KIF18A INHIBITORS” (AMGEN INC., priority 2019, published 2022).
